According to patent US5182276A, “Nootropic agent” (Santen Pharmaceutical Co., Ltd., priority 1989, dated 1993):
Counter-ions that a name gives are not always drawn.

Tests used:
Acute toxicity, oral = conditions: rat, in vivo, rats
Description: The acute toxicity thereof was investigated by orally administering the compounds of Formula (I) to rats and they were confirmed to be highly safe.
Compound A was orally administered to rats to determine the acute toxicity thereof.

[1] = Trial Passive Avoidance Training after cerebral ischemia; assay type: in vivo, male SHR's (rat); conditions: for Reaction Latency: cut-off 300 s, **: P < 0.01 vs. Pathema Control (146.7 ± 30.42)
Description: (§1) 25-Week-old male SHR's were fixed on the back thereof under anesthetization with 1.5% halothane anesthetic (70% N,O, 30% O2) and the neck thereof was subjected to a median incision. The cerebral ischemia was caused by immediately ligating the both common carotid arteries with,a silk fiber after a vinyl tube was attached to the artery and just before the recovery from the anesthetic state. 3.5 Hours after the ligation, the silk fiber was cut to again initiate the blood circulation. In the test, the compound to be tested was suspended in a 0.5% aqueous solution of methyl cellulose and was initially administered, through oral route, to the animals to be tested 30 minutes before the ligation of the common artery and thereafter it was continuously administered every day over 16 days through oral route provided that the compound was not administered during the behavioral pharmacologic tests of the animals and was administered after completion of the tests.
As a testing apparatus, there was used a training box comprising a bright room whose floor was formed from grid, a dark room capable of applying footshock through the floor made of grid and a port opening equipped with a guillotine door disposed at the boundary of these rooms through which the animal could freely move between these two rooms. First, as an acquired trial, the rat was put in the bright room for 30 seconds while the guillotine door was closed, then the guillotine door was opened and the time required for the rat to enter into the dark room through the guillotine door was determined. […] After 24 hours, the rat was again put in the bright room, 30 seconds thereafter the guillotine door was opened and the time required for the animal to confirm the entrance and to enter into the dark room (the reaction latency) was determined. […]

[2] = test system: Choline acetyltransferase (ChAT); assay: Activity of Choline acetyltransferase (ChAT) in the striatum after cerebral ischemia; assay type: in vivo, male SHR's (rat)
Description: as §1
After completion of the learning test, the rat was sacrificed by decapitation and the activity of ChAT which had been believed to be involved in the memory function of animals was determined. The brain tissues were homogenized in 0.05% Triton X-100 containing-phosphate buffer solution (pH 7.4) and the resulting supernatant was used as a sample for determining the ChAT activity. The activity of ChAT was determined according to the method of Fonnum (J. Neurochem., 1975,24, p. 407).

[3] = Test of Hypoxia-Inhibiting Effect (survival time under nitrogen gas); assay type: in vivo, ICR mice; conditions: 100 mg/kg oral
Description: In this test, groups (9 to 10 mice each) of ICR mice were employed. The compound to be tested was suspended in a 0.5% aqueous methyl cellulose solution and was orally administered. 60 Minutes after the administration,each mouse was placed in a transparent container (volume 500m μ) having an exhaust hole and N, gas was supplied to the container at a rate of 5μ/min. The time (survival time in sec.) ,elapsed from the initiation of the nitrogen gas supply until the cessation of breathing of each mouse was determined. As the compounds to be tested, there was used (+)-3,4-dihydro-2-(5-methoxy-2- (3-(N-methyl-N-[2-[(3,4]propoxy]phenyl]-4-methyl-3-oxo-2H-1,4-benzothiazine fumarate (hereinafter referred to as "Compound A") which is a representative compound of the present invention. The results obtained are listed in the following Table 1.

[4] = Water Maze-Learning Test after cerebral ischemia; assay type: in vivo, male SHR's (rat); conditions: for Swimming Time, 3rd Session: **: P < 0.01 vs. Pathema Control (114.9 ± 16.93); for Swimming Time, 2nd Session: **: P < 0.01 vs. Pathema Control (130.0 ± 17.13); for Swimming Time, 1st Session: **: P < 0.01 vs. Pathema Control (167.5 ± 9.59)
Description: as §1
This water maze-learning test was initiated on 7th day after the cerebral ischemia condition was formed. A cylindrical water tank having a diameter of 1.2 m was filled with black water and the temperature thereof was maintained at 20±1° C. A platform which was submerged in the water to a depth of 2 cm and could not be externally seen through the water (hereinafter referred to as "platform") was placed at the central point existing between the center of the water tank and the wall thereof.
The water maze-learning test was performed once a day (one session) which was continuously performed over three days (three sessions). In the first session (1st day), the animal was allowed to freely swim in the water tank which was free of platforms, then a platform was positioned in the tank and the animal was allowed to learn the presence of the platform of refuge by placing the animal thereon for 30 seconds. The animal was released through four predetermined points on the wall of the water tank over four times and the total time (swimming time (sec)) required until the animal got on the platform over four trials was determined. After the four trials, the animal was again allowed to stand on the platform for […] and thus the first session was completed. In this respect, the maximum total time required over four trials was determined to be 180 seconds. […] The 2nd and 3rd sessions were performed under the same conditions used in the first session except that the test animal was not allowed to freely swim in the water tank prior to the initiation of the test. The spatial positions of the water tank and the platform in the laboratory were not changed at all during the water maze-learning test term.

[5] = test system: cerebral ischemia / energy metabolic substances in the brain; assay: Test of Cerebral Energy Metabolism (bilateral common carotid artery ligation, SHR); assay type: in vivo, male SHR's (rat); conditions: for Hippocampus E.C. (energy charge): **: P < 0.01 vs. Pathema Control (0.628 ± 0.026); for Cerebral Cortex E.C. (energy charge): **: P < 0.01 vs. Pathema Control (0.631 ± 0.0243); for Striatum E.C. (energy charge): **: P < 0.01 vs. Pathema Control (0.679 ± 0.032)
Description: 24-Week-old male SHR's were fixed on the back thereof under with 1.5% halothane anesthetic (70% N,O, 30% O2) and the neck thereof was subjected to a median incision. The cerebral ischemia was caused by immediately ligating bilateral common carotid artery with a silk fiber just before the recovery from the anesthetic state. 3.5 Hours after the ligation, the animals were sacrificed by irradiating them with microwaves (5 KW, 1.5 second). The brain tissues were collected and divided into cerebral cortex, hippocampus and striatum. The brain tissues were homogenized in a 0.6N aqueous perchloric acid solution and centrifuged at 3,000 rpm for 20 minutes. The resulting supernatant was used as the sample for detecting the energy metabolic substances. In the measurement, ATP-Uv test (available from Sigma Co., Ltd.) was used as ATP and lactate-UV test (available from Boeringer Mannheim Yamanouchi Co., Ltd.) was used as lactate. The detection of ADP and AMP was performed according to the method of Bergmeyer (Klin. Chem. Klin. Biochem., 1975, 13, p. 507). The energy charge (hereinafter referred to as "E.C.") which served as an indication of the degree of energy sufficiency due to high energy phosphoric acid of adenine nucleotide was calculated from the following relation according to the method of Atkinson (J. Biol. Chem., 1967, 242, p. 3329):
E.C.=(ATP+1/2ADP)/(ATP+ADP+AMP)
In the test, the compound to be tested was suspended in a 0.5% aqueous solution of methyl cellulose and was administered, through an oral route, to the animals to be tested 30 minutes before the ligation of the both common carotid arteries.

Compound: COc1ccc(OCCCN(C)CCOc2ccc3c(c2)OCO3)c(C2Sc3ccccc3N(C)C2=O)c1 (single isomer, unassigned; (+)) [Compound A, (+)-3,4-dihydro-2-(5-methoxy-2-(3-(N-methyl-N-[2-[(3,4]propoxy]phenyl]-4-methyl-3-oxo-2H-1,4-benzothiazine fumarate]
- LD50 (Acute toxicity, oral): 293 mg/kg
- Reaction Latency ([1]; 10 mg/kg oral): 271.1 ± 19.21 s
- Reaction Latency ([1]; 30 mg/kg oral): 280.8 ± 19.25 s
- average reaction latency (in words) ([1]; vs. pathema control group): significantly longer
- ChAT activity in the striatum ([2]; 10 mg/kg oral, *: P < 0.05 vs. Pathema Control (3.43 ± 0.097)): 3.84 ± 0.102 n mol/mg Protein
- ChAT activity in the striatum ([2]; 30 mg/kg oral, **: P < 0.01 vs. Pathema Control (3.43 ± 0.097)): 3.94 ± 0.201 n mol/mg Protein
- lowering of the activity of ChAT in the striatum due to the cerebral ischemia (in words) ([2]; rat, in vivo): inhibited
- effect on survival time under low oxygen supply (in words) [3]: significant effect of extending survival time
- Survival Time ([3]; 60 min before N2, average ± standard error, **: P < 0.01 vs. Control (25.8 ± 0.61)): 35.7 ± 1.28 s
- Swimming Time, 3rd Session ([4]; 10 mg/kg oral): 40.9 ± 11.82 s
- Swimming Time, 2nd Session ([4]; 10 mg/kg oral): 61.4 ± 15.06 s
- Swimming Time, 1st Session ([4]; 10 mg/kg oral): 105.8 ± 16.50 s
- Swimming Time, 3rd Session ([4]; 30 mg/kg oral): 34.5 ± 3.60 s
- Swimming Time, 2nd Session ([4]; 30 mg/kg oral): 59.6 ± 9.60 s
- Swimming Time, 1st Session ([4]; 30 mg/kg oral): 97.2 ± 18.85 s
- time required to reach the base (in words) ([4]; vs. pathema control group): significantly shorter
- Hippocampus E.C. (energy charge) ([5]; 10 mg/kg oral): 0.706 ± 0.025
- Cerebral Cortex E.C. (energy charge) ([5]; 10 mg/kg oral): 0.705 ± 0.0237
- Striatum E.C. (energy charge) ([5]; 10 mg/kg oral): 0.703 ± 0.025
- reduction in the E.C. due to the ischemia (in words) ([5]; 10 mg/kg oral, cerebrum cortex and hippocampus): significantly improved
- changes in the ATP and the lactate due to the ischemia (in words) ([5]; 25 mg/kg oral): significantly inhibited
- effect on the ratio lactate/pyruvate (in words) ([5]; 25 mg/kg oral): substantially improved
- ATP ([5]; 25 mg/kg oral, 30 min before 3.5 h ligation, average ± standard error, **: P < 0.01 vs. Pathema Control (10.0 ± 1.03)): 16.9 ± 0.87 n mole/mg Protein
- Lactate/Pyruvate ([5]; 25 mg/kg oral, 30 min before 3.5 h ligation, average ± standard error, **: P < 0.01 vs. Pathema Control (40.3 ± 6.78)): 19.1 ± 2.71
- Lactate ([5]; 25 mg/kg oral, 30 min before 3.5 h ligation, average ± standard error, **: P < 0.01 vs. Pathema Control (128.6 ± 15.84)): 62.3 ± 10.20 n mole/mg Protein
- Hippocampus E.C. (energy charge) ([5]; 30 mg/kg oral): 0.762 ± 0.022
- Cerebral Cortex E.C. (energy charge) ([5]; 30 mg/kg oral): 0.764 ± 0.0078
- Striatum E.C. (energy charge) ([5]; 30 mg/kg oral): 0.768 ± 0.0063
- reduction in the E.C. due to the ischemia (in words) ([5]; 30 mg/kg oral, cerebral cortex, hippocampus and striatum): completely inhibited
